Measurements from patent publication US20120178671A1, “INHIBITION OF NFK-B MEDIATED VIRUS REPLICATION WITH SPECIFIC OLIGOSACCHARIDES” (N.V. Nutricia, priority 2009, published 2012).
Entries after “also recorded” stand apart in the source; their conditions may differ. Read-outs that look alike come from different tables or passages of the source.

Assays:
Format in all cases: cell-based
HEK293 cells = assay: Glutathione in HEK293 cells incubated with pAOS and NAC; conditions: AOS 22.5 hr (18 h in Example 4), NAC 2.5 hr, compared with TNF-α-stimulated cells (control)
Protocol: To determine this, HEK293 cells were incubated with AOS for 22.5 hr. and NAC in combination with TNF-α for 2.5 hr. Obtained GSH levels were corrected for cell numbers and results were compared levels with TNF-α-stimulated cells (control). […] The combination of NAC and AOS enhance GSH production up to 278% compared with control. Data sets were compared with their baseline controls (0 mg/ml AOS in combination with its specific concentration of NAC or L-cysteine) and presented in example 2. High concentrations of AOS and NAC result in a relative stronger increase in GSH levels.
Methods: HEK293 cells were incubated with citrus pectin oligosaccharide (pAOS) for 18 h, then as a cystein source, NAC was added and incubated for 2.5 h. After the incubation period, the cells were centrifugated (2000 rpm for 5 min). Medium was discarded and taken up into ice-cold perchloric acid (0.4 M) and resuspended. Samples were then centrifuged for 10 min. at 13.000 rpm. Supernatant was collected and used for glutathione measurements. Total glutathione measurements were performed in 10 or 20 times diluted samples.

[1] = system: TNF-α-mediated NF-κB activation; assay: NF-κB luciferase reporter in HEK293 cells, TNF-α induced (pAOS with NAC or L-cysteine); conditions: pAOS pre-incubated, NAC or L-cysteine added with TNF-α for 2.5 hr
Protocol: FIG. 2. NFkappaB response in HEK293 cells after 22.5 hr. incubation with AOS and NAC (A) or L-cysteine (B) with TNF-α for 2.5 hr. […] TNF-α was added to induce NF-κB activation. citrus pectin oligosaccharide (pAOS) was added 18 h prior to TNF-α addition (t=18 h). As a cystein source, NAC was added at the same time as TNF-α. At t=20.5 the production of luciferase was measured by chemiluminescence.

NF-κB = assay: Screening of oligosaccharides NFK-B inhibiting activity; conditions: screening of (oligo)saccharides, Yes/No
Description: It is hypothesized that the main site of action of the specific nutritional oligosaccharides as mentioned in example 1, is the intestine. […] Screening of oligosaccharides NFK-B inhibiting activity

NFκB activation = assay: NFκB luciferase reporter in HEK293 cells with EPA, pAOS and L-cysteine, TNF-α induced; conditions: HEK293-NFκB-Luc cells stimulated with TNFα; for activity at 1000 µM: Homo sapiens, read-out: Inhibition of NFκB activation, average
Protocol: Methods: HEK293 cells were stably transfected with a NFκB luciferase reporter gene construct. One day after cell plating EPA (0, 25 μM) was added at t=0 h. pAOS (0, 1, 2 and 3 g/L) were added at t=96 h and L-cysteine (0, 1 mM) at t=120 h. NFκB activation was induced by 2.5 h incubation with TNF-α. Luciferase activity was subsequently assessed at t=122.5 h. As a control for cell viability cellular ATP levels were determined.

Compound: CC(=O)N[C@@H](CS)C(=O)O [NAC, N-acetyl cysteine]
- GSH (glutathione) levels, result in words (HEK293 cells): enhances GSH levels in a concentration of 10 mM
- TNF-α-mediated NF-κB activation, result in words [1]: capable of blocking NF-κB activation; also recorded: inhibited TNF-α-mediated NF-κB activation dose dependently

Compound: O=C[C@H](O)[C@@H](O)[C@@H](O)[C@H](O)C(=O)O [Galacturonic acid]
- NFκB inhibition (NF-κB): No

Compound: O.OC[C@H]1O[C@H](OC[C@H]2O[C@H](OC[C@H]3O[C@H](O[C@]4(CO)O[C@H](CO)[C@@H](O)[C@@H]4O)[C@H](O)[C@@H](O)[C@@H]3O)[C@H](O)[C@@H](O)[C@H]2O)[C@H](O)[C@@H](O)[C@H]1O [Stachyose hydrate]
- NFκB inhibition (NF-κB): No

Compound: N[C@@H](CS)C(=O)O [L-cysteine]
- activity at 1000 µM (NFκB activation; HEK293, AOS 0 mg/ml, EPA 25 uM and/or L-cysteine 1 mM as labelled, control without additions = 100): 80%
- activity at 1000 µM (NFκB activation; HEK293, AOS 1 mg/ml, alone or together with the labelled EPA 25 uM and/or L-cysteine 1 mM, control = 100): 55%
- activity at 1000 µM (NFκB activation; HEK293, AOS 2 mg/ml, alone or together with the labelled EPA 25 uM and/or L-cysteine 1 mM, control = 100): 32%
- activity at 1000 µM (NFκB activation; HEK293, AOS 3 mg/ml, alone or together with the labelled EPA 25 uM and/or L-cysteine 1 mM, control = 100): 24%

Compound: O=C(O)[C@H]1O[C@H](O[C@@H]2[C@H](O)[C@@H](O)[C@@H](O[C@@H]3[C@H](O)[C@@H](O)C(O)O[C@@H]3C(=O)O)O[C@@H]2C(=O)O)[C@H](O)[C@@H](O)[C@H]1O (stereo partly drawn) [Trigalacturonic acid]
- NFκB inhibition (NF-κB): Yes

Compound: OC[C@H]1O[C@H](OC[C@H]2OC(O)(CO)[C@@H](O)[C@@H]2O)[C@H](O)[C@@H](O)[C@@H]1O (stereo partly drawn) [Palatinose]
- NFκB inhibition (NF-κB): No

Compound: CC/C=C\C/C=C\C/C=C\C/C=C\C/C=C\CCCC(=O)O [EPA, eicosapentaenoic acid]
- Inhibition of NFκB activation, average (NFκB activation; AOS 0 mg/ml, EPA 25 uM and/or L-cysteine 1 mM as labelled, control without additions = 100): 113
- Inhibition of NFκB activation, average (NFκB activation; AOS 1 mg/ml, alone or together with the labelled EPA 25 uM and/or L-cysteine 1 mM, control = 100): 62
- Inhibition of NFκB activation, average (NFκB activation; AOS 2 mg/ml, alone or together with the labelled EPA 25 uM and/or L-cysteine 1 mM, control = 100): 29
- Inhibition of NFκB activation, average (NFκB activation; AOS 3 mg/ml, alone or together with the labelled EPA 25 uM and/or L-cysteine 1 mM, control = 100): 8

Compound: OC[C@H]1O[C@@](CO)(OC[C@@]2(OC[C@@]3(OC[C@@]4(O[C@H]5O[C@H](CO)[C@@H](O)[C@H](O)[C@H]5O)O[C@H](CO)[C@@H](O)[C@@H]4O)O[C@H](CO)[C@@H](O)[C@@H]3O)O[C@H](CO)[C@@H](O)[C@@H]2O)[C@@H](O)[C@@H]1O [1,1,1-kestopentaose]
- NFκB inhibition (NF-κB): No

Compound: OC[C@H]1O[C@@](CO)(OC[C@@]2(O[C@H]3O[C@H](CO)[C@@H](O)[C@H](O)[C@H]3O)O[C@H](CO)[C@@H](O)[C@@H]2O)[C@@H](O)[C@@H]1O [1-kestose]
- NFκB inhibition (NF-κB): No

Compound: O=C(O)[C@H]1O[C@H](O[C@@H]2[C@H](O)[C@@H](O)[C@@H](O)O[C@@H]2C(=O)O)[C@H](O)[C@@H](O)[C@H]1O [Digalacturonic acid]
- NFκB inhibition (NF-κB): Yes

Compound: OC[C@H]1O[C@@](CO)(OC[C@@]2(OC[C@@]3(O[C@H]4O[C@H](CO)[C@@H](O)[C@H](O)[C@H]4O)O[C@H](CO)[C@@H](O)[C@@H]3O)O[C@H](CO)[C@@H](O)[C@@H]2O)[C@@H](O)[C@@H]1O [1,1-kestotetraose]
- NFκB inhibition (NF-κB): No
